In test [1] the test system is CHO^R cells (vinblastine (VBL) resistant tumor cell line). Put plainly: Reversal of multidrug resistance (MDR) in CHO^R cells: cell growth with test compound with or without vinblastine (VLB). Particulars: 72 hr. The format is cell-based. The method, then:
CHO^R cells were plated at a density of 1X105/35mm dish and were allowed to grow overight at 37° C. in a CO2 incubator. The medium was replaced with medium containing the compounds and vinblastine (0.2 μg/ml). The cells were allowed to grow for further 72 hr and the cell number was determined by Coulter counter after trypsiunization.

The test system of test [2] is multidrug-resistant tumors. Particulars: reported previously; cited from earlier work.

Read-outs that look alike come from different tables or passages of the source.

For orientation: inhibition means how much of the control response was suppressed.

For the compound `CC[C@]1(O)C[C@@H]2CN(CCc3c([nH]c4ccccc34)[C@@](C(=O)OC)(c3cc4c(cc3OC)N(C)[C@H]3[C@@](O)(C(=O)OC)[C@H](OC(C)=O)[C@]5(CC)C=CCN6CC[C@]43[C@@H]65)C2)C1` [VLB, vinblastine, reference compound], in test [1] (VLB alone, 0.2 μg/ml), the “effect on cell growth of VLB alone” value is listed as “did not have any effect on cell growth”.
Regarding `COc1ccc(CCN(C)CCCC(C#N)(c2ccc(OC)c(OC)c2)C(C)C)cc1OC` (stereo not shown) [verapamil], the “reversal of drug resistance in multidrug-resistant tumors” value (“reversal of drug resistance” for short) in test [2] was “reverse drug resistance”.
For `CCCc1[nH]c(=O)oc1-c1ccnc2ccccc12` [4-PROPYL-5-(4-QUINOLINYL)-2(3H)-OXAZOLONE], the inhibition at 0.1 µg/mL in test [1] (0.1 μg/ml compound + vinblastine 0.2 μg/ml, read-out: % Inhibition of Cell Growth, Compound + VLB) came out at 4%; in test [1] (0.1 μg/ml compound, no VLB, read-out: % Inhibition of Cell Growth, Compound Only), 0%. The inhibition at 1 µg/mL in test [1] (1 μg/ml compound + vinblastine 0.2 μg/ml, read-out: % Inhibition of Cell Growth, Compound + VLB) is 43%; in test [1] (1 μg/ml compound, no VLB, read-out: % Inhibition of Cell Growth, Compound Only) it was 0%. The inhibition at 5 µg/mL in test [1] (5 μg/ml compound + vinblastine 0.2 μg/ml, read-out: % Inhibition of Cell Growth, Compound + VLB) was 93%; in test [1] (5 μg/ml compound, no VLB, read-out: % Inhibition of Cell Growth, Compound Only) it was 0%. Also, the inhibition at 10 µg/mL in test [1] (10 μg/ml compound + vinblastine 0.2 μg/ml, read-out: % Inhibition of Cell Growth, Compound + VLB) stood at 93%; in test [1] (10 μg/ml compound, no VLB, read-out: % Inhibition of Cell Growth, Compound Only), 14%.
Consider `COC(=O)[C@H]1[C@H]2C[C@@H]3c4[nH]c5cc(OC)ccc5c4CCN3C[C@H]2C[C@@H](OC(=O)c2cc(OC)c(OC)c(OC)c2)[C@@H]1OC` [reserpine], for which the “reversal of drug resistance” value in test [2] was “reverse drug resistance”.
Consider `COc1ccc([C@@H]2Sc3ccccc3N(CCN(C)C)C(=O)[C@@H]2OC(C)=O)cc1` [diltiazem], for which, in test [2], the “reversal of drug resistance” value is reported as “reverse drug resistance”.
Turning to `C=C[C@H]1C[N@@]2CC[C@H]1C[C@@H]2[C@@H](O)c1ccnc2ccc(OC)cc12` [Quinidine], the “reversal of drug resistance” value in test [2] is reported as “reverse drug resistance”.

(Values after patent US5190957A, “Treatment of multi-drug resistant tumors with quinolyl-and isoquinolyloxazole-2-ones” (Merrell Dow Pharmaceuticals Inc., priority 1992, dated 1993).)
